Read-outs that look alike come from different tables or passages of the source.
Biological target: T1, CsLOX1 (9/13-CsLOX1) (Camellia sinensis, UniProt A8W7J7)
T1 construct: gene lox1
T1 sequence (A8W7J7 1-861): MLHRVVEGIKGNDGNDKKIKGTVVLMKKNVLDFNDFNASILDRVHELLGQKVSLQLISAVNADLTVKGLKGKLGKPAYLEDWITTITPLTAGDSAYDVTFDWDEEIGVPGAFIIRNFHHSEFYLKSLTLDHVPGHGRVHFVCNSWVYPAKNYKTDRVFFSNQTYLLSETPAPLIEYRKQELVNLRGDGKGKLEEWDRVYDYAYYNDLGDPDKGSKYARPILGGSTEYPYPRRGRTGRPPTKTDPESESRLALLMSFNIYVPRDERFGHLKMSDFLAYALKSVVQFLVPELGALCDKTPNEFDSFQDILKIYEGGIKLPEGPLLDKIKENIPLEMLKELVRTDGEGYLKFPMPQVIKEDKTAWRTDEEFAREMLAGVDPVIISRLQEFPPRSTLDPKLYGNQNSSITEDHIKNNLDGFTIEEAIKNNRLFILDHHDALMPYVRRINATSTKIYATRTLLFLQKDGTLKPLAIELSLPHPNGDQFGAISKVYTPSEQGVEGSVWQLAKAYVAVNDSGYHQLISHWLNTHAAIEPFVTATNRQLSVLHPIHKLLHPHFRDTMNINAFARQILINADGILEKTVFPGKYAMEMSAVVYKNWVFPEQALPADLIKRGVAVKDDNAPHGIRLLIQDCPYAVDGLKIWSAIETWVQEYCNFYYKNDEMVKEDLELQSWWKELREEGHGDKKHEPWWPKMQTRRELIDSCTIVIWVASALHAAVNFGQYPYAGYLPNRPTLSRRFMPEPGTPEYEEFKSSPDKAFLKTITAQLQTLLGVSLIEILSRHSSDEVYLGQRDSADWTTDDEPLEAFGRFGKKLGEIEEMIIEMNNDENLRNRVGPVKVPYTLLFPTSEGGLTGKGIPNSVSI
Settings: co-substrate O2, substrate 75-600 μM, pH and temperature of the kinetics not stated (optimum pH 3.6, 25°C)

SMILES: CCCCC/C=C\C/C=C\CCCCCCCC(=O)O [linoleic acid]
- Km: 141 µM

SMILES: CC/C=C\C/C=C\C/C=C\CCCCCCCC(=O)O [linolenic acid]
- Km (linolenic acid isomer not printed (alpha taken from jasmonate context)): 32.9 µM

Source: article PMC3095316, “Differential expression pattern of an acidic 9/13-lipoxygenase in flower opening and senescence and in leaf response to phloem feeders in the tea plant” (BMC Plant Biology, 2010)
